Data on 18 compounds can be found in PubChem BioAssay (NCI).

Structures are written as SMILES.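 How tested: cells in 96-well plates exposed to compound for 48 hours at five concentrations. TGI: concentration producing complete growth inhibition.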 Some results are limits rather than exact numbers.

Test systems include DMS 273 small cell lung; M19-MEL melanoma; UACC-257 melanoma; XF 498 CNS; 786-0 renal; SF-539 CNS; OVCAR-8 ovarian; DMS 114 small cell lung; OVCAR-5 ovarian; IGROV1 ovarian; HOP-18 NSCLC; SK-OV-3 ovarian; HS 578T breast.
Common to all, as to experiment: DTP human tumour cell line panel, 48 h

With `O=S1(=O)NNC(=NCc2ccc(Cl)cc2)c2ccccc21`, the TGI with DMS 273 small cell lung, with M19-MEL melanoma, in the experiment on UACC-257 melanoma, with XF 498 CNS, in the experiment on 786-0 renal and with SF-539 CNS was > 100 µM in each case. Also, the TGI with OVCAR-8 ovarian, with DMS 114 small cell lung, in the experiment with OVCAR-5 ovarian and with IGROV1 ovarian was > 100 µM in each case.

Take `NC(Cc1cc(I)c(O)c(I)c1)C(=O)O` (stereo not given): the TGI (as a rule, the concentration giving total growth inhibition) in the experiment on HOP-18 NSCLC is > 500 µM; in the experiment on DMS 273 small cell lung it was > 322 µM; in the experiment with M19-MEL melanoma, > 393 µM; with UACC-257 melanoma, > 354 µM; with SK-OV-3 ovarian, > 500 µM; with XF 498 CNS, > 500 µM. The TGI was > 500 µM with SF-539 CNS; > 500 µM in the experiment with OVCAR-8 ovarian; > 293 µM in the experiment with DMS 114 small cell lung; > 500 µM in the experiment with OVCAR-5 ovarian; > 500 µM with IGROV1 ovarian.

Take `O=C(/C=C/c1ccc(-c2ccccc2[N+](=O)[O-])o1)NCc1ccc(C(=O)NCCc2ccccc2)cc1`: the TGI in the experiment on UACC-257 melanoma, with SK-OV-3 ovarian, in the experiment on 786-0 renal, in the experiment with SF-539 CNS, in the experiment on OVCAR-8 ovarian and with HS 578T breast was > 100 µM each time. For the same compound, the TGI in the experiment on OVCAR-5 ovarian and in the experiment with IGROV1 ovarian was > 100 µM in each case.

For the compound `CC(NC(=O)/C(=C/c1ccccc1O)NC(=O)c1ccccc1)C(=O)O` (stereo not given), the TGI in the experiment with UACC-257 melanoma is > 100 µM; in the experiment with SK-OV-3 ovarian, 50.2 µM; with 786-0 renal it was 68.1 µM; with SF-539 CNS it was 46.4 µM; in the experiment with OVCAR-8 ovarian, 29.1 µM; in the experiment on HS 578T breast it was 38.2 µM. In addition, the TGI in the experiment with OVCAR-5 ovarian and with IGROV1 ovarian was > 100 µM in each case.

Turning to `O=c1[nH]c(=O)n(C2OC(COP(=O)(O)OP(=O)(O)O)C(O)C2O)cc1F` (stereo not given), the TGI with HOP-18 NSCLC is > 50 µM; in the experiment on DMS 273 small cell lung, > 50 µM; in the experiment with M19-MEL melanoma it was > 50 µM; in the experiment on UACC-257 melanoma, > 50 µM; in the experiment with SK-OV-3 ovarian it was 47.8 µM; with XF 498 CNS, > 50 µM. Moreover, the TGI with 786-0 renal is 7.09 µM; in the experiment with SF-539 CNS, 17.2 µM; in the experiment on OVCAR-8 ovarian, > 50 µM; in the experiment on DMS 114 small cell lung it was > 50 µM; in the experiment on OVCAR-5 ovarian it was > 44.1 µM; in the experiment with IGROV1 ovarian, > 50 µM.

In the case of `C#CCNC(Cc1cnc[nH]1)C(=O)O` (stereo not given), the TGI in the experiment on UACC-257 melanoma, with SK-OV-3 ovarian, in the experiment on 786-0 renal, in the experiment on SF-539 CNS, in the experiment with OVCAR-8 ovarian and in the experiment with HS 578T breast was > 100 µM each time. In addition, the concentration for total growth inhibition (TGI) in the experiment on OVCAR-5 ovarian and in the experiment on IGROV1 ovarian was > 100 µM each time.

Take `O=C(O)/C=C(/CC(=O)O)C(=O)O`: the TGI in the experiment with UACC-257 melanoma was > 100 µM; in the experiment with SK-OV-3 ovarian, 47.6 µM; in the experiment with 786-0 renal, 33.3 µM; in the experiment with SF-539 CNS, 26 µM; in the experiment with OVCAR-8 ovarian it was 46.6 µM; in the experiment with HS 578T breast it was 40.7 µM. The TGI was > 100 µM in the experiment with OVCAR-5 ovarian and 42.2 µM in the experiment with IGROV1 ovarian.

As to `COc1ccc(/C=C/c2cc(O)cc(OC)c2)cc1`, the TGI in the experiment on UACC-257 melanoma, in the experiment on SK-OV-3 ovarian, in the experiment with 786-0 renal, in the experiment with SF-539 CNS, in the experiment on OVCAR-8 ovarian and with HS 578T breast was > 100 µM each time. For the same compound, the TGI in the experiment with OVCAR-5 ovarian and with IGROV1 ovarian was > 100 µM in each case.

On to `OC1CCCC1C(O)(C(F)(F)F)C(F)(F)F` (stereo not given), for which the TGI with UACC-257 melanoma, with SK-OV-3 ovarian, in the experiment with 786-0 renal, in the experiment on SF-539 CNS, in the experiment on OVCAR-8 ovarian and with HS 578T breast was > 100 µM throughout. The TGI in the experiment with OVCAR-5 ovarian and in the experiment with IGROV1 ovarian was > 100 µM each time.

Take `S=C(N/N=C\C=N/NC(=S)N1CCCCCC1)N1CCCCCC1`: the TGI in the experiment with UACC-257 melanoma, in the experiment on SK-OV-3 ovarian, in the experiment on 786-0 renal, in the experiment on SF-539 CNS, with OVCAR-8 ovarian and with HS 578T breast was > 100 µM each time. Moreover, the TGI in the experiment with OVCAR-5 ovarian and with IGROV1 ovarian was > 100 µM in each case.

With `Cc1cc(S(=O)(=O)Nc2nnc3c(C(F)(F)F)cc(Cl)cn23)c(S)cc1Cl`, the TGI in the experiment with UACC-257 melanoma, with SK-OV-3 ovarian, in the experiment on 786-0 renal, in the experiment with SF-539 CNS, in the experiment with OVCAR-8 ovarian and in the experiment with HS 578T breast was > 100 µM each time. For the same compound, the TGI in the experiment with OVCAR-5 ovarian and with IGROV1 ovarian was > 100 µM in each case.

Turning to `COc1cc(C2C3=C(CCC3=O)Oc3cc4c(cc32)OCO4)cc(OC)c1OC` (stereo not given), the TGI was > 100 µM in the experiment with HOP-18 NSCLC; > 100 µM in the experiment on DMS 273 small cell lung; > 100 µM in the experiment with M19-MEL melanoma; > 100 µM in the experiment with UACC-257 melanoma; > 100 µM with SK-OV-3 ovarian; 0.736 µM in the experiment with XF 498 CNS. Besides, the TGI was > 100 µM in the experiment with OVCAR-8 ovarian, 0.725 µM in the experiment on DMS 114 small cell lung, > 100 µM in the experiment with OVCAR-5 ovarian and > 100 µM in the experiment on IGROV1 ovarian.

For the compound `COc1ccc(C2(c3ccc(OC)cc3)OC(=O)c3cccc4cccc2c34)cc1`, the TGI is > 100 µM in the experiment on UACC-257 melanoma; > 100 µM in the experiment on SK-OV-3 ovarian; > 100 µM in the experiment with 786-0 renal; 9.63 µM in the experiment with SF-539 CNS; > 100 µM with OVCAR-8 ovarian; 97.4 µM with HS 578T breast. Moreover, the TGI in the experiment on OVCAR-5 ovarian and in the experiment on IGROV1 ovarian was > 100 µM each time.

As to `CCC1(CC)C(=O)CC[C@@]2(C)C1=CC[C@H]1[C@@H]3CC[C@H](O)[C@@]3(C)CC[C@@H]12`, the total growth inhibition concentration (TGI) was 82.6 µM in the experiment with UACC-257 melanoma; > 100 µM in the experiment with SK-OV-3 ovarian; 29.6 µM in the experiment on 786-0 renal; > 100 µM in the experiment with SF-539 CNS; 56.5 µM in the experiment on OVCAR-8 ovarian; 72.6 µM in the experiment on HS 578T breast. Further, the TGI with OVCAR-5 ovarian and with IGROV1 ovarian was > 100 µM each time.

Consider `Cc1nnc2cc(C(=O)O)c3ccccc3n2c1=O`, for which the concentration for total growth inhibition (TGI) in the experiment with UACC-257 melanoma, with SK-OV-3 ovarian, in the experiment with 786-0 renal, in the experiment on SF-539 CNS, in the experiment with OVCAR-8 ovarian and with HS 578T breast was > 10 µM in each case. The TGI in the experiment with OVCAR-5 ovarian and with IGROV1 ovarian was > 10 µM in each case.

`CCCCC[C@@H]1OCO[C@@]2(C)/C=C(C)/C=C/C(=O)O[C@H]([C@@H](C)[C@@H](O)[C@H](C)[C@@]3(O)C[C@@H](O[C@H]4C[C@@H](O)[C@H](O)[C@@H](C)O4)[C@H](C)[C@@H](C)O3)[C@@H](OC)/C=C/C=C(\C)C[C@@H]1[C@@H]2O` (stereo in doubt): the TGI in the experiment with UACC-257 melanoma is < 0.005 µM; in the experiment with SK-OV-3 ovarian it was 5.38 µM; in the experiment on 786-0 renal it was 0.676 µM; with SF-539 CNS, 3.23 µM; in the experiment with OVCAR-8 ovarian it was 7.38 µM; in the experiment on HS 578T breast, 50 µM. In addition, the TGI in the experiment on OVCAR-5 ovarian was 0.215 µM; in the experiment on IGROV1 ovarian, 8.22 µM.

Regarding `O=C1NC(=S)N/C1=C/c1ccccc1O`, the TGI in the experiment on UACC-257 melanoma, with SK-OV-3 ovarian, in the experiment on 786-0 renal, in the experiment on SF-539 CNS, in the experiment with OVCAR-8 ovarian and in the experiment with HS 578T breast was > 100 µM throughout. In addition, the concentration for total growth inhibition (TGI) with OVCAR-5 ovarian and with IGROV1 ovarian was > 100 µM throughout.

`CC(=O)O[C@H]1C#C/C=C\C#CC[C@@H]2C(=O)N(C(=O)OC(C)(C)C)[C@@H]12`: the TGI in the experiment on UACC-257 melanoma is > 100 µM; in the experiment with SK-OV-3 ovarian, > 100 µM; in the experiment on 786-0 renal, 51.7 µM; with SF-539 CNS, 18.5 µM; with OVCAR-8 ovarian it was > 82.3 µM; in the experiment with HS 578T breast, > 88.7 µM. For the same compound, the TGI in the experiment with OVCAR-5 ovarian and in the experiment with IGROV1 ovarian was > 100 µM in each case.
